Experimental data from patent US10745416B2, “Macrocyclic compounds for treating disease” (Turning Point Therapeutics, Inc., priority 2017, dated 2020).

Key:
Experiment in all cases: Cell proliferation assay (CellTiter-Glo, 72 hours)
[1] = tested on: KM12 cell (TPM3-TRKA); type: cell-based, human; details: Homo sapiens, KM12, anti-cell proliferation
Summary of the method: (§1)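 Cells used were KG-1 (AML), TT medullary thyroid carcinoma ([…]) and KM12 colon (TPM3-TRKA). Viability was read by CellTiter-Glo ATP luminescence, and IC50 derived by curve fitting.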

[2] = tested on: KG-1; type: cell-based, human; details: Homo sapiens, KG-1, anti-cell proliferation
Summary of the method: as §1

[3] = biological target: T1, BaF3 KIF5B-RET (Homo sapiens, UniProt P07949); type: cell-based; details: anti-cell proliferation, read-out: BaF3 KIF5B-RET IC50
T1 construct: fused on or other part: P33176 (Kinesin-1 heavy chain)
Summary of the method: (§2)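 Ba/F3 cells were lentivirally transduced with wild-type or mutant KIF5B-RET, puromycin-selected and grown without IL-3. CellTiter-Glo ATP luminescence read viability, and IC50 values came from curve fitting.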

[4] = biological target: T2, BaF3 KIF5B-RET_V804M (Homo sapiens, UniProt P07949, V804M, cells depend on it); type: cell-based; details: anti-cell proliferation, read-out: BaF3 KIF5B-RET_V804M IC50
T2 construct: fused on or other part: P33176 (Kinesin-1 heavy chain)
Summary of the method: as §2

[5] = tested on: TT cell (RET C634W); type: cell-based; details: Homo sapiens, anti-cell proliferation
Procedure: Human medulla thyroid carcinoma cell line TT (containing RET […] mutation) and acute myelogenous cell line KG-1 were purchased from ATCC. Human colon cancer cell line KMI2 (containing TPM3-TRKA) was obtained from NCI.
Two thousand cells per well were seeded in 384 well white plate for 24 hrs, and then treated with compounds for 72 hours (37° C., 5% CO2). Cell proliferation was measured using CellTiter-Glo luciferase-based ATP detection assay (Promega) following the manufactures's protocol. IC50 determinations were performed using GraphPad Prism software (GraphPad, Inc., San Diego, Calif.).

[6] = biological target: T3, BaF3 EML4-ALK (Homo sapiens, UniProt Q9UM73); type: cell-based; details: anti-cell proliferation
T3 construct: The EML4-ALK gene (variant 1) was synthesized at GenScript and cloned into pCDH-CMV-MCS-EF1-Puro plasmid (System Biosciences, Inc); fused on or other part: Q9HC35 (Echinoderm microtubule-associated protein-like 4)
Summary of the method: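 Ba/F3 cells were stably transduced with wild-type EML4-ALK variant 1 and selected for IL-3-independent growth. Cells were seeded for 24 h, then exposed to compounds for 72 h at 37 °C, 5% CO2. Viability was read as ATP luminescence and IC50 values were fitted.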

[7] = biological target: T4, BaF3 KIF5B-RET_G810R (Homo sapiens, UniProt P07949, G810R, cells depend on it); type: cell-based; details: anti-cell proliferation, read-out: BaF3 KIF5B-RET_G810R IC50
T4 construct: fused on or other part: P33176 (Kinesin-1 heavy chain)
T4 sequence (P07949 whole entry G810R, the tested form may be a part): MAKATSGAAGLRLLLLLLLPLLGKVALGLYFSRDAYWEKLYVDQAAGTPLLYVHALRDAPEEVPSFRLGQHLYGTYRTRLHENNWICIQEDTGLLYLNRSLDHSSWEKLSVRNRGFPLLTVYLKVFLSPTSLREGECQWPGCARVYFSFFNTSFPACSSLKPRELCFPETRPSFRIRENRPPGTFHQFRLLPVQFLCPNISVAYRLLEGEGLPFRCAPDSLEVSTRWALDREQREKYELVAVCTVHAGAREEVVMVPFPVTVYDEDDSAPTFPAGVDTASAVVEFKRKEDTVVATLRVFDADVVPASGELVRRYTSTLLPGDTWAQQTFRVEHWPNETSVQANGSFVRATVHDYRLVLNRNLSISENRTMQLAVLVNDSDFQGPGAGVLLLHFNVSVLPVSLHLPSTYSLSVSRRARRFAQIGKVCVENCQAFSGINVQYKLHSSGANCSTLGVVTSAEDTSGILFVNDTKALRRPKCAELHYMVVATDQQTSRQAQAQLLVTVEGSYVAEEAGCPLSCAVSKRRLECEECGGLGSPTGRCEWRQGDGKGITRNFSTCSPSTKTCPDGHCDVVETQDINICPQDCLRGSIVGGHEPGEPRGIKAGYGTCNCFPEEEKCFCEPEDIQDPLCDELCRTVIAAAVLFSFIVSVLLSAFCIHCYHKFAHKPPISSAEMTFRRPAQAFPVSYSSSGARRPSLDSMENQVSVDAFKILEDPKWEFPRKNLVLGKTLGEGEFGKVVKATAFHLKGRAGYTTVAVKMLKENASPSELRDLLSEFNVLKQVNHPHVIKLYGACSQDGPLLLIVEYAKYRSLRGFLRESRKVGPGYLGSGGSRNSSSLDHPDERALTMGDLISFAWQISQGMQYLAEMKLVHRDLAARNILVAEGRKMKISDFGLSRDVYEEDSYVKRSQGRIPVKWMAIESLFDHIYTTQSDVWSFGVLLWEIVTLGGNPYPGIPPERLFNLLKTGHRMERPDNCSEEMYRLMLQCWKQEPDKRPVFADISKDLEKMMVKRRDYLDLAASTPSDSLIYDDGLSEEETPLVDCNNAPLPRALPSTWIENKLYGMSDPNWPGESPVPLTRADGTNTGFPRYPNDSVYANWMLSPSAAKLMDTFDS

T3 sequence (Q9UM73 whole entry, change not shown, the tested form may be a part): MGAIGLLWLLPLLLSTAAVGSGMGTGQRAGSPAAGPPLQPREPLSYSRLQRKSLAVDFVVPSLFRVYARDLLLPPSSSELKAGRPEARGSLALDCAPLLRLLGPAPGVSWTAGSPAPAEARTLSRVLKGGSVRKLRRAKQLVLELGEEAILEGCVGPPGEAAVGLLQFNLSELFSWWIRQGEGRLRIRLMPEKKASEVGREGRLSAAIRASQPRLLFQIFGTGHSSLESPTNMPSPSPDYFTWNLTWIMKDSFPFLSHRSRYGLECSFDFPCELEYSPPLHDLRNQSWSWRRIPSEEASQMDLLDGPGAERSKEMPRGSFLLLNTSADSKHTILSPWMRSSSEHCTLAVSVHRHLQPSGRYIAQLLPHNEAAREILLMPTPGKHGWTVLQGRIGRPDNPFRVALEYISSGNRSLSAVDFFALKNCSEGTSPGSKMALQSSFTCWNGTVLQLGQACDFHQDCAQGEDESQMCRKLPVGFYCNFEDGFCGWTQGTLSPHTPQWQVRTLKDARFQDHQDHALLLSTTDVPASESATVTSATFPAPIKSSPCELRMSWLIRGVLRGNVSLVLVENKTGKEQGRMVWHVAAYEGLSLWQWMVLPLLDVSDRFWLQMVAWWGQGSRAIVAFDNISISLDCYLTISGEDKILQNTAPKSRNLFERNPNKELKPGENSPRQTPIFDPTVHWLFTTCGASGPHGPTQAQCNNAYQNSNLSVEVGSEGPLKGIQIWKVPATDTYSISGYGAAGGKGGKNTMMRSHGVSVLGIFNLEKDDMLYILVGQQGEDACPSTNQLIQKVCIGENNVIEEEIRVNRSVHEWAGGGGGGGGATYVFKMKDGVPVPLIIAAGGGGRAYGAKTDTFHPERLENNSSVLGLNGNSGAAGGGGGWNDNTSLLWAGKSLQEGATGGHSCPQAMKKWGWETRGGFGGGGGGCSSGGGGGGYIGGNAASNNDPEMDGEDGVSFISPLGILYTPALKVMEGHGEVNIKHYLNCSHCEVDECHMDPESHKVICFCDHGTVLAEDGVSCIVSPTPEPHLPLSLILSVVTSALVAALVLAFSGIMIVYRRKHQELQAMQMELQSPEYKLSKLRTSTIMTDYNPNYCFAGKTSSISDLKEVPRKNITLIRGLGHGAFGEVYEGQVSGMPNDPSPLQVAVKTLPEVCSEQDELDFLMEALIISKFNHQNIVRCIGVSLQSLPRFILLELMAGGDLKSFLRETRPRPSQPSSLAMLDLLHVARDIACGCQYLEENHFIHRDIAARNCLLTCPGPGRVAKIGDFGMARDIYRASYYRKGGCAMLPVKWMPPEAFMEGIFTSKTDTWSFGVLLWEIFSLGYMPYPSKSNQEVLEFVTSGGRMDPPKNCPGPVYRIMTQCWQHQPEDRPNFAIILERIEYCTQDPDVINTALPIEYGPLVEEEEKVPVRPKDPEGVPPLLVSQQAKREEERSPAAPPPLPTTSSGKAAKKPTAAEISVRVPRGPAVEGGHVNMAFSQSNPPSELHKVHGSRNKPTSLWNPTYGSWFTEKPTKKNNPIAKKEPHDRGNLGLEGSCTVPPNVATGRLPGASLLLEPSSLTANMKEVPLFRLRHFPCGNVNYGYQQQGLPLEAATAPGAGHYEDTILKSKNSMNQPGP
T2 sequence (P07949 whole entry V804M, the tested form may be a part): as the sequence (P07949 whole entry G810R, the tested form may be a part) above, with V804M, R810G counted along it
T1 sequence (P07949 whole entry, change not shown, the tested form may be a part): as the sequence (P07949 whole entry G810R, the tested form may be a part) above, with R810G counted along it

GI50 [3] [nM]	GI50 [4] [nM]	GI50 [6] [nM]	GI50 [7] [nM]	Structure (SMILES)	IC50 [1] [nM]	IC50 [2] [nM]	IC50 [5] [nM]
1450	> 10000	> 10000		C[C@H]1CNC(=O)c2cnn3cc4c(nc23)N(Cc2cc(F)ccc2O1)[C@@H]1CCC[C@H]1O4 [Compound 2]	255	5000	1780
184	5000	3290		C[C@H]1CNC(=O)c2cnn3cc4c(nc23)N(Cc2cc(F)ccc2O1)[C@@H]1COC[C@@H]1O4 [Compound 4, (3aR,11S,20aS)-7-fluoro-11-methyl-1,3,3a,12,13,20a-hexahydro-5H-17-19-(metheno)furo[3′,4′:5,6][1,4] oxazino[3,4-i]pyrazolo[4,3-f][1,4,8,10]benzoxatriacyclotridecin-14(11H)-one]	22	5000	462
193	3000	3000	559	O=C1NC2(COc3ncc(F)cc3CN3c4nc5c1cnn5cc4O[C@H]1CCC[C@H]13)CC(F)(F)C2 [Compound 25, (3a′R,20a′S)-3,3,7′-trifluoro-1′H,2′H, 3′H,3a′H,5′H,11′H,13′H,14′H,20a′H-spiro[cyclobutane-1,12′-[10,20]dioxa[4,9,13,16,17,18][hexaaza [17,19](metheno)cyclopenta[5,6][1,4]oxazino[3,4-i]pyrazolo[4,3-f]pyrido [3,2-l][1,4,8,10]oxatriazacyclotridecin]-14′-one]	277	677	
342	> 10000	5000	1120	C[C@@H]1COc2ncc(F)cc2CN2c3nc4c(cnn4cc3O[C@H]3CCCC[C@H]32)C(=O)N1 [Compound 13, (4aR,13S,21aS)-8-fluoro-13-methyl-1,2,3,4,4a,13,14,21a-octahydro-6H-18, 20-(metheno)pyrazolo[4′,3′:6,7]pyrido [3′,2′:12,13][1,4,8, 10]oxatriazacyclotridecino[9,10-c][1,4]benzoxazin-15(12H)-one]	28.4	452	
< 0.2	1700	1500		C[C@H]1CNC(=O)c2cnn3cc4c(nc23)N(Cc2cc(F)cc(F)c2O1)[C@@H]1CCC[C@@H]1O4 [Compound 3, (3aR,11S,20aS)-7,9-difluoro-11-methyl-2,3,3a,12,13,20a-hexahydro-1H,5H-17-19-(metheno)cyclopenta[5,6][1,4] oxazino[3,4-i]pyrazolo[4,3-f][1,4,8,10]benzoxatriacyclotridecin-14(11H)-one]	4.2	505	7.9
1.1	1860	1400	7.8	O=C1NCC2(CC2)COc2ncc(F)cc2CN2c3nc4c1cnn4cc3O[C@H]1CCC[C@H]12 [Compound 20, (3a′R,21a′S)-7′-fluoro-1′H,2′H,3′H,3a′H, 5′H,11′H,13′H,14′H,15′H,21a′H-spiro[cyclopropane-1,12′-[10,21]dioxa[4,9,14,17,18,19][hexaaza [18,20](metheno)cyclopenta[5,6][1,4]oxazino[4,3-e]pyrazolo[3,4-h]pyrido [3,2-b][1,5,7,11]oxatriazacyclotetradecin]-15′-one]	0.5	2.4	
